Laboratory results reported in patent US7803992B2, “Methods and compositions for expressing an herbicide-tolerant polynucleotide” (Pioneer Hi-Bred International, Inc., priority 2005, dated 2010).

Tests used:
Assay type in all cases: in vivo
[1] = system: parent elite stiff stalk inbred corn; experiment: Preemergence herbicide application in greenhouse: fresh shoot weight and visual injury; conditions: for pest or weed control at 200 g/ha: Zea mays, pre-emergence, 672 h, read-out: % Visual Injury; for Fresh Weight: fresh shoots weighed 4 weeks after treatment, untreated 36.7 g
[2] = system: Heterozygous GAT-HRA corn; experiment: Postemergence herbicide application in greenhouse: fresh shoot weight and visual injury; conditions: for pest or weed control at 200 g/ha: Zea mays, post-emergence, read-out: % Visual Injury; for Fresh Weight: weighed 2 weeks after treatment, untreated 98.8 g
[3] = system: Heterozygous GAT-HRA corn; experiment: Preemergence herbicide application in greenhouse: fresh shoot weight and visual injury; conditions: for pest or weed control at 200 g/ha: Zea mays, pre-emergence, 672 h, read-out: % Visual Injury; for Fresh Weight: fresh shoots weighed 4 weeks after treatment, untreated 47.0 g
[4] = system: parent elite stiff stalk inbred corn; experiment: Postemergence herbicide application in greenhouse: fresh shoot weight and visual injury; conditions: for pest or weed control at 200 g/ha: Zea mays, post-emergence, read-out: % Visual Injury; for Fresh Weight: weighed 2 weeks after treatment, untreated 76.4 g
[5] = preemergence, 200 g/ha, 0% no injury, 100% plant death, mean of four replications
[6] = preemergence, 200 g/ha, mean of four replications
[7] = postemergence, 200 g/ha (glyphosate 3472 g ae/ha, glufosinate ammonium 1870 g/ha), 0% no injury, 100% plant death, mean of four replications
[8] = postemergence, 200 g/ha (glyphosate 3472 g ae/ha, glufosinate ammonium 1870 g/ha), mean of four replications

| Compound | pest or weed control at 200 g/ha [1, 5] [%] | Fresh Weight [1, 6] [g] | pest or weed control at 200 g/ha [2, 7] [%] | Fresh Weight [2, 8] [g] | pest or weed control at 200 g/ha [3, 5] [%] | Fresh Weight [3, 6] [g] | pest or weed control at 200 g/ha [4, 7] [%] | Fresh Weight [4, 8] [g] | % Visual Injury [1, 5] [%] | % Visual Injury [2, 7] [%] | % Visual Injury [3, 5] [%] | % Visual Injury [4, 7] [%] | pest or weed control at 200 g/ha [1] [%] | pest or weed control at 200 g/ha ([2]; […]) [%] | pest or weed control at 200 g/ha [3] [%] | pest or weed control at 200 g/ha ([4]; […]) [%] |
| --- | --- | --- | --- | --- | --- | --- | --- | --- | --- | --- | --- | --- | --- | --- | --- | --- |
| CCc1cnc(C2=NC(C)(C(C)C)C(=O)N2)c(C(=O)O)c1 (stereo not drawn) [Imazethapyr] | 69 | 24.4 | 9 | 93.4 | 20 | 50.0 | 97 | 6.4 |  |  |  |  |  |  |  |  |
| COC(=O)c1ccc(I)cc1S(=O)(=O)NC(=O)Nc1nc(C)nc(OC)n1 [Iodosulfuron-methyl Na^+, Iodosulfuron-methyl] |  | 24.4 |  | 95.0 |  | 52.5 |  | 3.5 | 92 | 1 | 5 | 100 |  |  |  |  |
| COc1cc(OC)nc(NC(=O)NS(=O)(=O)c2ncccc2C(=O)N(C)C)n1 [Nicosulfuron] | 43 | 33.6 | 0 | 94.7 | 0 | 50.3 | 24 | 62.7 |  |  |  |  |  |  |  |  |
| COC(=O)c1ccccc1S(=O)(=O)NC(=O)Nc1nc(OC(F)F)cc(OC(F)F)n1 [Primisulfuron-methyl] |  | 19.5 |  | 101.0 |  | 37.9 |  | 16.6 |  |  |  |  | 68 | 5 | 7 | 75 |
| CCCOc1nn(C(=O)NS(=O)(=O)c2ccccc2C(=O)OC)c(=O)n1C [Propoxycarbazone Na^+, Propoxycarbazone] |  | 0.6 |  | 101.2 |  | 46.7 |  | 1.9 | 100 | 9 | 100 | 100 |  |  |  |  |
| COc1nc(C)nc(NC(=O)NS(=O)(=O)c2ccccc2CCC(F)(F)F)n1 [Prosulfuron] | 68 | 20.9 | 29 | 91.3 | 9 | 43.3 | 25 | 53.6 |  |  |  |  |  |  |  |  |
| CO/N=C(/C)c1cccc(Oc2nc(OC)cc(OC)n2)c1C(=O)OC [Pyriminobac-methyl] |  | 30.4 |  | 95.2 |  | 39.9 |  | 7.6 |  |  |  |  | 83 | 4 | 20 | 93 |
| COc1cc(OC)nc(Sc2cccc(Cl)c2C(=O)[O-])n1.[Na+] [Pyrithiobac Na^+, Pyrithiobac] |  | 0.0 |  | 87.9 |  | 48.6 |  | 2.8 | 100 | 9 | 0 | 100 |  |  |  |  |
| COC(=O)c1ccccc1S(=O)(=O)NC(=O)Nc1nc(C)cc(C)n1 [Sulfometuron-methyl] |  | 0.0 |  | 104.5 |  | 47.3 |  | 2.0 |  |  |  |  | 100 | 2 | 6 | 100 |
| CCS(=O)(=O)c1nc2ccccn2c1S(=O)(=O)NC(=O)Nc1nc(OC)cc(OC)n1 [Sulfosulfuron] | 100 | 1.0 | 3 | 105.5 | 18 | 50.6 | 97 | 4.0 |  |  |  |  |  |  |  |  |
| COC(=O)c1sccc1S(=O)(=O)NC(=O)Nc1nc(C)nc(OC)n1 [Thifensulfuron-methyl] | 88 | 15.2 | 10 | 86.6 | 3 | 36.0 | 98 | 4.2 |  |  |  |  |  |  |  |  |
| COc1nc(C)nc(NC(=O)NS(=O)(=O)c2ccccc2OCCCl)n1 [Triasulfuron] | 89 | 14.1 | 6 | 90.3 | 12 | 47.7 | 97 | 6.4 |  |  |  |  |  |  |  |  |
| COc1cc(OC)nc(NC(=O)NS(=O)(=O)c2ncccc2OCC(F)(F)F)n1 [Trifloxysulfuron Na^+, Trifloxysulfuron] |  | 0.0 |  | 86.6 |  | 50.8 |  | 1.0 | 100 | 29 | 0 | 100 |  |  |  |  |
| COC(=O)c1cccc(C)c1S(=O)(=O)NC(=O)Nc1nc(OCC(F)(F)F)nc(N(C)C)n1 [Triflusulfuron-methyl] |  | 26.3 |  | 110.9 |  | 53.5 |  | 2.1 | 100 | 8 | 5 | 100 |  |  |  |  |
| Imazamethabenz-methyl |  | 36.2 |  | 95.0 |  | 48.5 |  | 66.9 | 61 | 16 | 15 | 11 |  |  |  |  |
